Patent publication EP0765662A1, “HIV GROWTH INHIBITORY COMPOSITION” (Kochi, Mutsuyuki, priority 1994, dated 1995)
Counter-ions that a name gives are not always drawn.

Key:
ICR strain mice = assay: Evaluation of toxicity (intravenous, mice); type: in vivo; conditions: intravenously, 1000 mg per kg body weight, male, 5 mice in each group
Method: SBA in the form of a solution in a physiological saline (containing […]) was administered intravenously to ICR strain mice (5 week-aged, male, 5 mice in each group) at a dosage of 1000 mg per kg of the body weight of mice tested.

HIVBRU = assay: HIV-p24 antigen released from HIV-infected A3.01 cells stimulated with TNF-α; type: cell-based; conditions: TNF-α 10 units/ml; for Amount of the HIV p24 antigen: HIV-infected A3.01 cells
Excerpt: In view of all these test results, it appears that the inhibitory activity of SBA against the replication of HIV-1 is not attributable to that SBA directly acts on HIV so as to make lose the infectivity (infectious power) of HIV. (c) Test of examining the inhibitory activity of SBA against such replication of the viral particles of HIV which is induced when a tumor necrosis factor (TNF-α) is introduced into the HIV-infected A3.01 cells AIDS virus, HIVBRU (its reverse transcriptase activity, 0.03 cpm/cell) and 6 x 10^6 cells of the A3.01 cell (HAT-susceptible CEM cell strain) were mixed and reacted together in a culture medium at 37°C for 1 hour, and thereafter the mixed cells were washed with PBS to remove the excess of the particles of HIV virus therefrom. The A3.01 cells (5 x 10^5 cells) which had been so infected with HIV were then cultivated in various culture media containing TNF-α and SBA at different concentrations of them. The amount of the HIV-p24 antigen (an HIV-structural protein of HIV) which was released in the culture supernatant from the cultivated cells under test was periodically measured during the period of between 0 day to 5th day of the cultivation. The culture medium used for the above-mentioned cultivation of the A3.01 cells was an RPM1-1640 medium comprising 10% of heat-treated embryonic bovine serum, and minor amounts of penicillin, streptomycin, glutamine and mercaptoethanol. The amount of the HIV-p24 antigen produced was measured with lapse of time, and the relationship of the amount of the HIV-p24 antigen to the concentration of SBA is summarily tabulated in Table 4 below.
In the tests above, the replication of the viral particles of HIV was examined in terms of the amount of the p24 antigen protein produced and appearing in the culture supernatant from the cultivated cells. Thus, the amount of the p24 antigen produced was measured periodically over 6 days after the A3.01 cells were infested with HIV. It was then observed that in the absence of SBA, the replication of the viral particles of HIV was induced in the A3.01 cells by stimulation with 10 units/ml of TNF-α added. […] Thus, the effective amount of SBA has the activity to inhibit the replication of the viral particles of HIV within the cells to an extent as same as AZT, and from this it is expected that SBA is useful similarly to AZT for the therapeutic treatments of AIDS. (d) Tests for evaluating an inhibitory activity of SBA to the formation of giant cells from HIV-infected Molt-4 cells In a similar manner to that in the above Test (c), Molt-4 cells (a CD4-positive human T-cell strain) were infected with AIDS virus, HIVBRU. Thereafter, The HIV-infected Molt-4 cells were mixed with such Molt-4 cells which had no HIV-infection. And the mixture of these cells were cultivated at a high density of the mixed cells in the above-mentioned improved RPM1-1640 medium containing SBA at its different concentrations. Whereupon, there was examined the presence of cell-fused cell(s) (namely, the giant cells) which were formed by fusion of the HIV-infected cells with each other or by fusion of the HIV-infected cells with the HIV-non-infected cells. The formation and appearance of the giant cells was confirmed by microscopic observation. The size of such giant cells is clearly different from the size of the other usual cells. […] Namely, it is shown that SBA has an anti-HIV activity. […] In the initial stage of the transcription of HIV-1 gene, said NFkB, i.e. the transcription regulating factor of the host cells, plays an important role. […] NFkB is known to be a complex protein which is composed by the association of a molecule of protein having a molecular weight of about 50,000 (p50) with a molecule of protein having a molecular weight of about 65,000 (p65). […]

HIV = assay: HIV-p24 antigen in culture supernatant of HIV-infected mitogen-derived blast cells of PBMC; type: cell-based; conditions: for Amount of HIV-p24 antigen: PHA-activated PBMC blast cells, culture supernatant
Method: The cytotoxicity of SBA against the A3.01 cells, at a high SBA concentration of 1000 µg of SBA/ml, was such that the rate of survival of said cells was about 70%. The above results of testing the cytotoxicity of SBA indicate that the cytotoxicity of SBA against the above various cells is fairly low. On the other hand, with the HIV-infected A3.01 cells, it is seen that the presence of SBA at concentrations in a range of from 500 to 800 µg of SBA/ml gives the rate of survival of the HIV-infected A3.01 cells at a level as low as 3-24%. […] (b) Tests of examining the inhibitory activities of SBA against infestion of HIV to mitogen-derived blast cells of human periphery blood monocytic cell (PBMC) and against proliferation of HIV in the HIV-infected blast cells of PMBC as well as against replication of the viral particles of HIV in the HIV-infected blast cells of PBMC, where HIV was made to infest the blast cells of PBMC of which the blastogenesis has been induced by a mitogen. Such blast cells of PBMC, which were blastogenetically transformed by activation with PHA […] as a mitogen, were cultivated and then made to be infested with HIV either by inoculation of HIV or by inoculation of HIV which had been pretreated with SBA. The HIV-infected cells so obtained continued further to be incubated in the culture media containing different concentrations of SBA. Then, the supernatant of the resulting cultures was separated, and the amount of the viral particles of HIV as released in the supernatant so obtained was measured. This measurement of the released amount of the viral particles of HIV was made by determining the amount of HIV-p24 antigen, i.e. a structural protein of HIV, existing in the supernatant, as a substitute index which can represent the amount of the viral particles of HIV so released in said supernatant.

O=C1O[C@H]([C@@H]2COC(c3ccccc3)O2)C(O)=C1O (stereo partly drawn) [SBA, 5,6-O-benzylidene-L-ascorbic acid mono-sodium salt]
mortality (ICR strain mice): None of the mice thus treated died | inhibition at 10 µg/mL (HIVBRU; Human immunodeficiency virus 1, SBA 10 µg/ml, in comparison with the cases when SBA was absent, read-out: inhibition of the replication of the HIV viral particles): 50% | Amount of the HIV p24 antigen (HIVBRU; SBA 1 µg/ml, 0th day): 0 pg/mL | Amount of the HIV p24 antigen (HIVBRU; SBA 1 µg/ml, 1st day): 0 pg/mL | Amount of the HIV p24 antigen (HIVBRU; SBA 1 µg/ml, 2nd day): 0 pg/mL | Amount of the HIV p24 antigen (HIVBRU; SBA 1 µg/ml, 3rd day): 1400 pg/mL | Amount of the HIV p24 antigen (HIVBRU; SBA 1 µg/ml, 4th day): 2600 pg/mL | inhibition of the replication of the viral particles of HIV (in words) (HIVBRU; SBA 1 µg/ml, 5th day from the HIV infection): considerably inhibited | Amount of the HIV p24 antigen (HIVBRU; SBA 1 µg/ml, 5th day): 4000 pg/mL | Amount of the HIV p24 antigen (HIVBRU; SBA 10 µg/ml, 0th day): 0 pg/mL | Amount of the HIV p24 antigen (HIVBRU; SBA 10 µg/ml, 1st day): 0 pg/mL | Amount of the HIV p24 antigen (HIVBRU; SBA 10 µg/ml, 2nd day): 0 pg/mL | Amount of the HIV p24 antigen (HIVBRU; SBA 10 µg/ml, 3rd day): 800 pg/mL | Amount of the HIV p24 antigen (HIVBRU; SBA 10 µg/ml, 4th day): 1500 pg/mL | Amount of the HIV p24 antigen (HIVBRU; SBA 10 µg/ml, 5th day): 2250 pg/mL | Amount of the HIV p24 antigen (HIVBRU; SBA 100 µg/ml, 0th day): 0 pg/mL | Amount of the HIV p24 antigen (HIVBRU; SBA 100 µg/ml, 1st day): 0 pg/mL | Amount of the HIV p24 antigen (HIVBRU; SBA 100 µg/ml, 2nd day): 0 pg/mL | Amount of the HIV p24 antigen (HIVBRU; SBA 100 µg/ml, 3rd day): 0 pg/mL | Amount of the HIV p24 antigen (HIVBRU; SBA 100 µg/ml, 4th day): 0 pg/mL | Amount of the HIV p24 antigen (HIVBRU; SBA 100 µg/ml, 5th day): 0 pg/mL | inhibition of the replication of the viral particles of HIV (in words) (HIVBRU; SBA 100 µg/ml): completely inhibited | inhibition of the replication of the viral particles of HIV (in words) (HIV; PBMC blast cells infected with the SBA-pretreated HIV, cultivated in the presence of SBA): no appreciable effect of SBA to inhibit the replication of the viral particles of HIV can be observed | Amount of HIV-p24 antigen (HIV; SBA 10 µg/ml, cells as infected with HIV): 1500 pg/mL | Amount of HIV-p24 antigen (HIV; SBA 10 µg/ml, cells as infected with the SBA-pretreated HIV): 1240 pg/mL | Amount of HIV-p24 antigen (HIV; SBA 50 µg/ml, cells as infected with HIV): 1400 pg/mL | Amount of HIV-p24 antigen (HIV; SBA 50 µg/ml, cells as infected with the SBA-pretreated HIV): 1520 pg/mL | inhibition of the production of the HIV antigen (in words) (HIV; SBA 100 µg/ml, PHA-activated PBMC blast cells infested with HIV): exhibited an effective activity inhibitory to the production of the HIV antigen | Amount of HIV-p24 antigen (HIV; SBA 100 µg/ml, cells as infected with HIV): 380 pg/mL | Amount of HIV-p24 antigen (HIV; SBA 100 µg/ml, cells as infected with the SBA-pretreated HIV): 1430 pg/mL
